Experimental data published in ChEMBL document CHEMBL1201862, “PubChem BioAssay data set” (2004).
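Five concentrations, 48 hours, 96-well plates. The concentration for 50% growth inhibition is given as GI50.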 Active and inactive are the calls of the source. Rule as the data show it: active = GI50 up to about 1.1 µM and inactive = higher.

Key:
Test in all cases: inhibition of tumour cell growth, NCI panel, 48 h
[1] = test system: EKVX
[2] = test system: SF-295
[3] = test system: NCI-H522
[4] = test system: HCT-15
[5] = test system: OVCAR-4
[6] = test system: 786-0
[7] = test system: RXF 393
[8] = test system: LOX IMVI
[9] = test system: HT-29
[10] = test system: SNB-75
[11] = test system: SK-MEL-28
[12] = test system: UACC-257
[13] = test system: OVCAR-8
[14] = test system: SN12C
[15] = test system: NCI-H23
[16] = test system: SK-MEL-5
[17] = test system: NCI-H226
[18] = test system: SR

Structure (SMILES) | GI50 [1] | GI50 [2] | GI50 [3] | GI50 [4] | GI50 [5] | GI50 [6] | GI50 [7] | GI50 [8] | GI50 [9] | GI50 [10] | GI50 [11] | GI50 [12] | GI50 [13] | GI50 [14] | GI50 [15] | GI50 [16] | GI50 [17] | GI50 [18]
CCOc1ccc(/N=C\c2cc(OC)c(OC)c(OC)c2)cc1 | > 100 µM (inactive) | > 100 µM (inactive) | > 100 µM (inactive) | 32.4 µM | > 100 µM (inactive) | > 100 µM (inactive) | 2.08 µM (inactive) | > 100 µM (inactive) | > 100 µM (inactive) | 32.4 µM (inactive) | > 100 µM (inactive) | > 100 µM (inactive) | > 100 µM (inactive) | > 100 µM (inactive) | > 100 µM (inactive) | > 100 µM (inactive) | – | –
O=c1nc2sc3ccc4ccccc4c3n2nc1-c1ccccc1 | 41.8 µM (inactive) | 16.8 µM (inactive) | – | 45.1 µM | 14.7 µM (inactive) | 18.7 µM (inactive) | 21 µM (inactive) | 15.1 µM (inactive) | 94.8 µM (inactive) | 21.1 µM (inactive) | 35.6 µM (inactive) | 99.3 µM (inactive) | 18.9 µM (inactive) | 27.2 µM (inactive) | 27.2 µM (inactive) | 59.2 µM (inactive) | 59.2 µM (inactive) | 71.6 µM (inactive)
COC(=O)c1ccccc1N1C(=O)Cc2ccccc2C1=O | > 100 µM (inactive) | 45.4 µM (inactive) | – | > 100 µM | – | 66.1 µM (inactive) | 42.3 µM (inactive) | – | > 100 µM (inactive) | 21.6 µM (inactive) | > 100 µM (inactive) | > 100 µM (inactive) | 75.9 µM (inactive) | > 100 µM (inactive) | > 100 µM (inactive) | > 100 µM (inactive) | > 100 µM (inactive) | > 100 µM (inactive)
CC1=C(/C(C)=N/NC(=O)C(N)=O)Sc2ccccc2N1 | > 100 µM (inactive) | > 100 µM (inactive) | > 100 µM (inactive) | > 100 µM | > 100 µM (inactive) | > 100 µM (inactive) | > 100 µM (inactive) | > 100 µM (inactive) | > 100 µM (inactive) | 65.8 µM (inactive) | > 100 µM (inactive) | > 100 µM (inactive) | > 100 µM (inactive) | > 100 µM (inactive) | > 100 µM (inactive) | > 100 µM (inactive) | – | –
O=C(N/C(=C\c1ccc(F)cc1)c1nc2ccccc2[nH]1)c1ccccc1 | > 100 µM (inactive) | – | > 100 µM (inactive) | > 100 µM | > 100 µM (inactive) | > 100 µM (inactive) | > 100 µM (inactive) | > 100 µM (inactive) | > 100 µM (inactive) | 56 µM (inactive) | > 100 µM (inactive) | > 100 µM (inactive) | > 100 µM (inactive) | > 100 µM (inactive) | > 100 µM (inactive) | > 100 µM (inactive) | > 100 µM (inactive) | –
COc1ccc(C(=O)C(C(=O)C(=O)Nc2nccs2)c2ccc(OC)cc2)cc1 (centres undefined) | – | – | 92 µM (inactive) | > 100 µM | > 10 µM (inactive) | > 100 µM (inactive) | 80.9 µM (inactive) | > 100 µM (inactive) | > 100 µM (inactive) | 73.6 µM (inactive) | > 100 µM (inactive) | > 100 µM (inactive) | > 100 µM (inactive) | > 100 µM (inactive) | > 100 µM (inactive) | > 100 µM (inactive) | – | –
CC1=C(C(=O)Nc2cc(F)c(F)cc2F)C(c2ccc3c(c2)OCO3)C(C(=O)Nc2cc(F)c(F)cc2F)=C(C)N1 | 18 µM (inactive) | 21.9 µM (inactive) | 14.9 µM (inactive) | – | 19.6 µM (inactive) | 18.3 µM (inactive) | 11.5 µM (inactive) | 14.4 µM (inactive) | 27.4 µM (inactive) | 13.1 µM (inactive) | 33.2 µM (inactive) | 25.9 µM (inactive) | 31 µM (inactive) | 18.7 µM (inactive) | 19.8 µM (inactive) | 19.4 µM (inactive) | 23.9 µM (inactive) | –
O=C(c1ccc(Cl)cc1)c1ccc(OCCCCCCCCCCOc2ccc(C(=O)c3ccc(Cl)cc3)cc2)cc1 | > 100 µM (inactive) | > 100 µM (inactive) | > 100 µM (inactive) | > 100 µM | – | > 100 µM (inactive) | > 100 µM (inactive) | > 100 µM (inactive) | > 100 µM (inactive) | > 100 µM (inactive) | > 100 µM (inactive) | > 100 µM (inactive) | > 100 µM (inactive) | > 100 µM (inactive) | > 100 µM (inactive) | > 100 µM (inactive) | > 100 µM (inactive) | –
O=C(CCC(=O)Nc1cccc(C(F)(F)F)c1)CC(=O)c1ccc2ccccc2c1 | > 100 µM (inactive) | > 100 µM (inactive) | > 100 µM (inactive) | > 100 µM | > 100 µM (inactive) | > 100 µM (inactive) | – | > 100 µM (inactive) | > 100 µM (inactive) | – | – | > 100 µM (inactive) | > 100 µM (inactive) | > 100 µM (inactive) | > 100 µM (inactive) | > 100 µM (inactive) | > 100 µM (inactive) | –
O=[N+]([O-])c1ccc(C2N3CCCCC3[C@@H]3c4[nH]c5ccccc5c4CCN23)cc1 (some centres undefined) | 29.9 µM (inactive) | 26.1 µM (inactive) | – | 14.3 µM | 22.6 µM (inactive) | 28.1 µM (inactive) | 4.59 µM (inactive) | – | 3.48 µM (inactive) | 0.0638 µM (active) | 16.3 µM (inactive) | 16.5 µM (inactive) | 30.4 µM (inactive) | 15.4 µM (inactive) | 15.5 µM (inactive) | 15 µM (inactive) | – | 3.12 µM (inactive)
COc1cc(C(=O)C/C(CCC(=O)Nc2ccccc2[N+](=O)[O-])=N\NC(N)=O)ccc1O | 32.9 µM (inactive) | > 100 µM (inactive) | > 100 µM (inactive) | > 100 µM | – | > 100 µM (inactive) | > 100 µM (inactive) | > 100 µM (inactive) | > 100 µM (inactive) | > 100 µM (inactive) | > 100 µM (inactive) | > 100 µM (inactive) | > 100 µM (inactive) | > 100 µM (inactive) | > 100 µM (inactive) | > 100 µM (inactive) | > 100 µM (inactive) | > 100 µM (inactive)
COc1c(C(=O)O)oc2c(OC)cccc12 | > 100 µM (inactive) | > 100 µM (inactive) | > 100 µM (inactive) | > 100 µM | > 100 µM (inactive) | > 100 µM (inactive) | – | > 100 µM (inactive) | > 100 µM (inactive) | 29.9 µM (inactive) | > 100 µM (inactive) | > 100 µM (inactive) | > 100 µM (inactive) | > 100 µM (inactive) | > 100 µM (inactive) | > 100 µM (inactive) | > 100 µM (inactive) | > 100 µM (inactive)
CC(=O)Nc1ccc(-c2nnc(SCC(=O)Nc3ccccc3[N+](=O)[O-])o2)cc1 | – | 98.6 µM (inactive) | 45.9 µM (inactive) | > 100 µM | 73.1 µM (inactive) | > 100 µM (inactive) | > 100 µM (inactive) | > 100 µM (inactive) | > 100 µM (inactive) | 92.7 µM (inactive) | > 100 µM (inactive) | > 100 µM (inactive) | > 100 µM (inactive) | > 100 µM (inactive) | > 100 µM (inactive) | > 100 µM (inactive) | > 100 µM (inactive) | 40.7 µM (inactive)
CCCC(O)[C@@H](O)c1ccc2c(c1O)C(=O)c1c(OC)cccc1C2=O (some centres undefined) | 55.1 µM (inactive) | 33 µM (inactive) | 16.1 µM (inactive) | 26.2 µM | 25 µM (inactive) | 37.5 µM (inactive) | – | 27.4 µM (inactive) | 38.9 µM (inactive) | 47 µM (inactive) | 66.4 µM (inactive) | 29.9 µM (inactive) | 30.1 µM (inactive) | 40.4 µM (inactive) | 36.6 µM (inactive) | 16.8 µM (inactive) | 27.3 µM (inactive) | 26.4 µM (inactive)
CC1C=CC(C)C2(O)C(=O)NC(O)C12 (centres undefined) | > 100 µM (inactive) | – | > 100 µM (inactive) | > 100 µM | > 100 µM (inactive) | > 100 µM (inactive) | > 100 µM (inactive) | – | – | > 100 µM (inactive) | > 100 µM (inactive) | > 100 µM (inactive) | > 100 µM (inactive) | > 100 µM (inactive) | – | > 100 µM (inactive) | > 100 µM (inactive) | > 100 µM (inactive)
Cn1c2ccccc2c2[nH]cc3nc4ccccc4c-3c21 | 9.71 µM (inactive) | 22.1 µM (inactive) | 13.5 µM (inactive) | 19.9 µM | 15.6 µM (inactive) | > 100 µM (inactive) | 16.1 µM (inactive) | 21.3 µM (inactive) | 15.8 µM (inactive) | 19.5 µM (inactive) | 14.8 µM (inactive) | 22.3 µM (inactive) | 20.3 µM (inactive) | 23.5 µM (inactive) | 17.1 µM (inactive) | 18.1 µM (inactive) | 22.4 µM (inactive) | –
COc1ccc(C2Cc3cc(OC)c(OC)c(OC)c3C2)cc1 (centres undefined) | 29 µM (inactive) | 41.1 µM (inactive) | – | 38.6 µM | 59.6 µM (inactive) | 61.4 µM (inactive) | – | 56.8 µM (inactive) | 28.1 µM (inactive) | 24.2 µM (inactive) | 31.2 µM (inactive) | 23.2 µM (inactive) | 48.5 µM (inactive) | 52.2 µM (inactive) | 9.59 µM (inactive) | 16.3 µM (inactive) | 34.9 µM (inactive) | –
